Laboratory results from paper PMC2654408 (PLoS ONE, 2009).
“And” between values parts separate entries of the source, which are not always exact repeats. Equal values may be shown once. Read-outs that look alike come from different tables or passages of the source. Where no end group is shown, it is not given here.

Legend:
α7-nAChR [1] = target: T1, α7-nAChR (Homo sapiens, UniProt P36544); assay: biochemical; type: binding; details: for [125I]α-BTX binding compared with control maximum specific binding: Mean±SEM
T1 construct: host or cells: GH4-hα7 (rat pituitary tumor GH4 cells stably transfected with human α7-nAChR)
T1 sequence (P36544 23-502): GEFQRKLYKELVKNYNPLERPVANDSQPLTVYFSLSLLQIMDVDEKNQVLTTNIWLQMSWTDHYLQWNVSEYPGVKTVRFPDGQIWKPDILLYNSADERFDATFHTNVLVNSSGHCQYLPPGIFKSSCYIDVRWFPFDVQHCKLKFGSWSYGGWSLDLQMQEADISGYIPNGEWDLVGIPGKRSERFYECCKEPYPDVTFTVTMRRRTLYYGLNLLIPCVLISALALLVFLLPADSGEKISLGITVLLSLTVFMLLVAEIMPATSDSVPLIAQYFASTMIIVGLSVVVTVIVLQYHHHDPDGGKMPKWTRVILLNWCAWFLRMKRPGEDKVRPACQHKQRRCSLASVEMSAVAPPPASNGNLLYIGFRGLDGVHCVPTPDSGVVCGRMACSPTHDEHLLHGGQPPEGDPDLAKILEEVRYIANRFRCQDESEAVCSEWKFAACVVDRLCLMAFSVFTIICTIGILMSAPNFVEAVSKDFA
Protocol: (§1) For membrane binding experiments, confluent cells were scraped off 75 cm^2 culture plates into ice-cold lysis buffer (20 mM Tris-HCl, pH 7.0, 5 mM ethylenediaminetetraacetic acid (EDTA), and 1× protease inhibitor cocktail (Roche Diagnostics, Ltd.,West Sussex, UK). After pelleting by centrifugation for 10 min at 13,000 rpm, cells were resuspended in 7 ml ice-cold lysis buffer, lysed by Dounce homogenization, and then centrifuged at 1000×g for 10 min. Supernatant was removed and the extraction process repeated. The supernatants were combined and centrifuged at 50,000 rpm (70 Ti rotor) for 30 min (Beckman Ultracentrifuge). All centrifugations were carried out at 4°C. The pelleted membranes were resuspended in binding buffer (50 mM Tris-HCl, 120 mM NaCl, 5 mM KCl, 1 mM MgCl2, 2.5 mM CaCl2, pH 7.0) and protein concentration determined using the DC Protein Assay kit (Bio-Rad Laboratories, Ltd., Hemel Hempstead, UK). Binding assays were assembled on ice in borosilicate glass test tubes with 50–100 µg membrane protein in binding buffer in a final volume of 250 µl. Binding reactions were incubated at 4°C overnight, and then terminated by rapid vacuum filtration using a Brandel Cell Harvester onto Whatman GF/B glass fibre filters pre-soaked in 0.4% polyethylenimine. Saturation binding experiments were performed with [^125I]α-BTX concentrations ranging from 0.03–100 nM. Displacement binding experiments were performed with a constant [^125I]α-BTX concentration of 2.0 nM. Non-specific binding was determined with 10 µM MLA.
(§2) Ligand binding data were analyzed using GraphPad Prism 4.03 (GraphPad Software, Inc.) Saturation binding data were fitted by nonlinear regression with a hyperbolic function for a one-binding site model. Displacement binding data were fitted by nonlinear regression for a one-site binding competition model, unless otherwise noted. RT-PCR band density data was analysed using Student's t-test for comparison of individual means with control values and by one-way ANOVA followed by Tukey's multiple comparison test for comparison of test groups and effect of MLA inhibition effects.

α7-nAChR mRNA expression = assay: RT-PCR analysis of α7-nAChR mRNA expression in GH4-hα7 cells; type: cell-based, human
Protocol: To assess the effects of T-AChE C-terminal peptides on α7-nAChR mRNA expression, total cellular RNA was isolated and analysed for gene-specific expression levels using reverse transcriptase PCR. Specifics of primer design and sequences used in RT-PCR experiments are described in the methods. […] Expression of the housekeeping gene glyceraldehyde 3-phosphate dehydrogenase (GAPDH) was used as a standard for comparative analysis. RT-PCR analysis was performed in control GH4-hα7 cells and those exposed to AChE peptides at concentrations ranging from 1 nM to 1 µM for 24 hr (Fig. 5A). […] A similar high level of α7-nAChR expression was achieved after treatment with only 1 nM T30.
as §2, with “Displacement binding data were fitted by nonlinear regression for a one-site binding competition model, unless otherwise noted.” left out
Primers for RNA analysis were designed using the Primer3 program and analysed for structural anomalies and dimer formation using NetPrimer software (Premier Biosoft International, Palo Alto, USA). […]

[2] = target: human alpha-7 nicotinic acetylcholine receptor (human) (UniProt P36544)
human alpha-7 nicotinic acetylcholine receptor (human), sequence (P36544 23-502): as above

[3] = target: human alpha-7 nicotinic acetylcholine receptor (human) (UniProt P36544); assay: radioligand binding
α7-nAChR [4] = target: T1, α7-nAChR; assay: Acute live cell [125I]α-BTX binding in GH4-hα7 cells; details: for efficacy in competition with [125I]α-BTX for receptor binding sites: 10 µM peptide
Protocol: Initial experiments were performed to characterize the binding parameters of the human α7-nAChR heterologously expressed in the rat GH4-hα7 cell line using a live-cell binding method. Saturation binding was carried out with [^125I]alpha-bungarotoxin ([^125I]α-BTX) concentrations ranging from 0.03 nM to 100 nM. Non-specific binding was determined in the presence of 10 µM methyllycaconitine (MLA).
For live cell binding experiments, cells were seeded into 6-well plates at a density of 1×10^5 cells/well and allowed to recover for 24–48 hours before experimentation. Cells were treated with indicated peptides or α7-nAChR ligands for 30 min at 37°C in cell medium containing 1% FBS. Then [^125I]α-bungarotoxin ([^125I]α-BTX; 150 Ci/mmol) was added and cells were incubated at 37°C for a further 1.5 hr. Cell layers were washed 3× with 2 ml serum-free DMEM, then 0.5 ml 1 M NaOH was added to each well to lyse cells. Cell lysates were transferred to 5 ml scintillation fluid and radioactivity was determined using a Beckman LS6000IC scintillation counter.
as §2

α7-nAChR [5] = target: T1, α7-nAChR; assay: Saturation binding on cell membranes after chronic 24 hr peptide treatment of GH4-hα7 cells; type: cell-based; details: 24 hr treatment with 100 nM peptide; read-out: Kd±SEM, receptor affinity for α-BTX
Protocol: as §1
as §2, with “Displacement binding data were fitted by nonlinear regression for a one-site binding competition model, unless otherwise noted.” left out

[6] = target: T2, human alpha-7 nicotinic acetylcholine receptor (human, UniProt P36544 23-502); assay: radioligand binding; details: one partner purified
T2 construct: human alpha-7 nicotinic acetylcholine receptor, heterologously expressed in the rat GH4-hα7 cell line; Used on live cells and as purified membranes of the same cell line; also called α7-nAChR; CHRNA7; source: on live cells and in purified cell membranes
T2 sequence (P36544 23-502): as above

[7] = target: T2, human alpha-7 nicotinic acetylcholine …; assay: radioligand binding; details: one partner purified; remark: listed apart in the source
[8] = live cells, [125I]α-BTX displacement, read-out: Ki, high affinity site

## CC(=O)OCC[N+](C)(C)C [ACh, acetylcholine]
α7-nAChR [1]; membranes, ligand at its EC50, varying concentrations of T30
  decrease in specific binding efficacy in the presence of T30 compared with ligand alone: 18%

## C[N+](C)(C)CCO [Choline, choline]
α7-nAChR [1]
  decrease in specific binding efficacy in the presence of T30 compared with ligand alone: 36%
α7-nAChR [1]; IC50±SEM
  IC50: 123 µM and 126 µM and 225 µM and 357 µM and 737 µM
α7-nAChR [1]; Ki±SEM
  Ki: 85.9 µM and 88.9 µM and 157 µM and 250 µM and 515 µM

## CCN1C[C@]2(COC(=O)c3ccccc3N3C(=O)C[C@H](C)C3=O)CC[C@H](OC)[C@@]34[C@@H]5C[C@H]6[C@H](OC)[C@@H]5[C@](O)(C[C@@H]6OC)[C@@](O)([C@@H](OC)[C@H]23)[C@@H]14 [MLA, methyllycaconitine]
α7-nAChR [1]
  decrease in specific binding efficacy in the presence of T30 compared with ligand alone: 24%
α7-nAChR [1]; IC50
  IC50: 0.0155 µM and 0.0095 µM
α7-nAChR mRNA expression
  α7-nAChR mRNA expression, relative band density: 1.58±0.12

## AChE C-terminal peptide T14
[2]
  α7-nAChR mRNA expression by RT-PCR (relative band density against GAPDH) in GH4-hα7 cells after 24 hr with 1 nM to 1 µM T14 (relative band density): 2.72

## AChE C-terminal peptide T30
[2]
  α7-nAChR mRNA expression by RT-PCR (relative band density against GAPDH) in GH4-hα7 cells after 24 hr with 1 nM to 1 µM T30 (relative band density): 2.98
[3]
  Ki, high affinity site: 16.8 pM
  Ki, second, lower affinity site: 47.1 nM

## AEFHRWSSYMVHWK [T14]
α7-nAChR [4]; live cells
  efficacy in competition with [125I]α-BTX for receptor binding sites: approximately 40%
α7-nAChR [4]; [8]
  Ki: 0.653 ± 0.0126 nM
α7-nAChR [1]; membranes, 1 µM peptide
  [125I]α-BTX binding compared with control maximum specific binding: 90.11±3.5%
α7-nAChR [1]; membranes, 10 µM peptide
  [125I]α-BTX binding compared with control maximum specific binding: 87.91±1.9%
α7-nAChR [5]
  Kd: 9.06 ± 0.93 nM

## KAEFHRWSSYMVHWKNQFDHYSKQERCSDL [T30]
α7-nAChR [4]; live cells
  efficacy in competition with [125I]α-BTX for receptor binding sites: 70%
α7-nAChR [4]; [8]
  Ki: 0.0168 ± 0.0018 nM
α7-nAChR [4]; live cells, two-site competition model, read-out: Ki, second lower affinity site
  Ki: 47.1 ± 2.8 nM
α7-nAChR [1]; membranes, 1 µM peptide
  [125I]α-BTX binding compared with control maximum specific binding: 110.9±3.6%
α7-nAChR [1]; membranes, 10 µM peptide
  [125I]α-BTX binding compared with control maximum specific binding: 117.3±4.9%
α7-nAChR [5]
  Kd: 12 ± 1.39 nM

## NQFDHYSKQERCSDL [T15]
α7-nAChR [5]
  Kd: 4.91 ± 0.53 nM

## [^125I]alpha-bungarotoxin [[^125I]α-BTX]
α7-nAChR [4]
  Bmax: 965.8±28.9 fmol/mg protein
  Kd: 4.68 ± 0.61 nM

B1: T-AChE: full-length tailed isoform of acetylcholinesterase (protein)
chain: EGREDAELLVTVRGGRLRGIRLKTPGGPVSAFLGIPFAEPPMGPRRFLPPEPKQPWSGVVDATTFQSVCYQYVDTLYPGFEGTEMWNPNRELSEDCLYLNVWTPYPRPTSPTPVLVWIYGGGFYSGASSLDVYDGRFLVQAERTVLVSMNYRVGAFGFLALPGSREAPGNVGLLDQRLALQWVQENVAAFGGDPTSVTLFGESAGAASVGMHLLSPPSRGLFHRAVLQSGAPNGPWATVGMGEARRRATQLAHLVGCPPGGTGGNDTELVACLRTRPAQVLVNHEWHVLPQESVFRFSFVPVVDGDFLSDTPEALINAGDFHGLQVLVGVVKDEGSYFLVYGAPGFSKDNESLISRAEFLAGVRVGVPQVSDLAAEAVVLHYTDWLHPEDPARLREALSDVVGDHNVVCPVAQLAGRLAAQGARVYAYVFEHRASTLSWPLWMGVPHGYEIEFIFGIPLDPSRNYTAEEKIFAQRLMRYWANFARTGDPNEPRDPKAPQWPPYTAGAQQYVSLDLRPLEVRRGLRAQACAFWNRFLPKLLSATDTLDEAERQWKAEFHRWSSYMVHWKNQFDHYSKQDRCSDL
α7-nAChR [4]; live cells, controls (Fig. 2D)
  effect on [125I]α-BTX binding to the α7-nAChR: neither full-length T-AChE, nor truncated T548, had an effect
α7-nAChR mRNA expression; 10 nM protein, 24 hr
  change in α7-nAChR mRNA expression: neither the full length T-AChE molecule (p = 0.3419), nor the truncated T548 (p = 0.1778), effected a significant change

B2: [125I]alpha-bungarotoxin (ligand)
chain: IVCHTTATSPISAVTCPPGENLCYRKMWCDAFCSSRGKVVELGCAATCPSKKPYEEVTCCSTDKCNPHPKQRPG
[6]
  Kd: 4.66 nM and 9.06 nM and 12 nM and 4.91 nM
[7]
  Kd: 4.68 nM
